From US20020065236A1, “CpG reduced plasmids and viral vectors” (priority 1998, published 2002) come the findings set out here.

Series [1] deals with BALB/c mice. The series can be described thus: Cytokine levels in BALF (ELISA) after intranasal instillation. As to conditions: for cytokine levels in BALF at higher concentrations of the compound: instilled with GL-67:pCFA-CAT; for inhibition of cytokine production in the lung: without affecting gene expression.
Procedure: Cytokine levels in the mouse BALF were quantitated using enzyme-linked immunosorbent assay (ELISA) kits as specified by the manufacturers. IFN-γ, TNF-α, IL1-α, IL-1β, IL-10 and IL-6 ELISA kits were from Genzyme Corporation, mKC, MIP-2 and GM-CSF ELISA kits were from R&D Systems, and Leukotriene B4 ELISA kit was from Perseptive Diagnostics.
BALB/c mice were instilled intranasally with 100 μl of complex as described. […] The animals were euthanized and their lungs were lavaged 24 h post-instillation using phosphate-buffered saline (PBS). The recovered BALF were centrifuged at 1,500 rpm for 4 min, and the resulting supernatants were removed and frozen at −80° C. for subsequent cytokine analysis. The cell pellets were resuspended in PBS for microscopic determination of cell number and cell types.
Separate groups of mice were instilled with either (m)pDNA or unmethylated pDNA alone, or vehicle, and their bronchoalveolar lavage fluids collected for analysis at 24 h post-treatment.
The animals were euthanized and their lungs were lavaged 24 h post-instillation using phosphate-buffered saline (PBS). The recovered BALF were centrifuged at 1,500 rpm for 4 min., and the resulting supernatants were removed and frozen at −80° C. for subsequent cytokine analysis.
Cytokine levels were quantitated using enzyme-linked immunosorbent assay (ELISA) kits as specified by the manufacturer (Genzyme Corporation, Framingham, MA).
Series [2] relates to BALB/c mice. Description: Lung histopathology after intranasal instillation. As to conditions: 2 days post-instillation, blinded.
Source text: The histopathological changes within BALB/c mouse lungs following administration of either cationic lipid alone, pDNA alone, or cationic lipid:pDNA complexes were also examined. […] Mice were sacrificed 2 days post-instillation and the lungs were processed for histological examination in a blinded manner.
Lungs were fixed by inflation at 30 cm of H2O pressure with 2% paraformaldehyde and 0.2% glutaraldehyde. Representative samples were taken from each lung lobe, embedded in glycol methacrylate, sectioned and stained with hematoxylin and eosin. Histopathology on the lung was evaluated in a blinded fashion and graded subjectively using a scale of 0 to 4, with a score of 0 indicating no abnormal findings and a score of 4 reflecting severe changes with intense infiltrates See Scheule et al., Hum.
Series [3] relates to mouse spleen cells. As to conditions: 10 μM chloroquine or 1 μM quinacrine. The procedure: Another strategy to reduce the stimulatory properties of the pDNA vector is to use specific inhibitors of 1 he CpG signaling pathway. […] These compounds were tested for their ability to inhibit the stimulatory properties of pDNA and cationic lipid-pDNA complexes in vitro and in the mouse lung.

The test system of series [4] is mouse spleen cells. The series can be described thus: IL-12 induction from mouse spleen cells. Format: cell-based. To be noted: for levels of IL-12 induction by GL-67:pCFA-CAT: addition of 10 μM of chloroquine or 1 μM of quinacrine; for levels of IL-12 induction by pCFA-CAT: co-addition of 10 μM of chloroquine or 1 μM of quinacrine, 24 hours. As for the experimental part: 6-8 week old 8ALB/c mice were sacrificed by cervical dislocation. Spleens were excised and placed in sterile PBS on ice. To prepare single cell suspensions, the spleens were placed in a tissue culture dish in PBS and crushed between the frosted edges of two sterile microscope slides. Cells were pelleted by centrifugation at 1200 rpm for 8 min., and washed 3 times in PBS. After the final wash, the cells were resuspended in RPMI medium supplemented with 25 mM HEPES buffer, 10% fetal bovine serum, 2 mM L-glutamine, and 50 μM 2-mercaptoethanol (2-ME). The resuspended cells were then plated at 6×10^6 cells/ml/well in 24-well culture plates. Supernatant were collected 24 hr after addition of oligonucleotides or plasmid DNA for the measurement of cytokine (IL-12) production.

Consider `CC(C)CCCC(C)C1CCC2C3CC=C4CC(OC(=O)N(CCCN)CCCCNCCCN)CCC4(C)C3CCC12C` (stereo not shown) [GL-67], for which the “levels of TNF-α, IFN-γ, IL-6 and murine KC (these four cytokines) in the BALF” value in series [1] (24 h after intranasal instillation of the component alone) is reported as “low levels”. In addition, the “contribution to the cytokine induction in the BALF” value in series [1] (with the exception of KC) is given as “did not contribute significantly”. In addition, in series [2], the “lung inflammation (histopathology, score on a scale from 0 to 4)” value is on record as “scored slightly lower”.
As for `CCN(CC)CCCC(C)Nc1ccnc2cc(Cl)ccc12` (stereo not shown) [chloroquine], in series [1], the “cytokine levels in BALF at higher concentrations of the compound” value was “did not further decrease” and the “inhibition of cytokine production in the lung” value was determined as 50%. For the same compound, in series [3], the “effects on expression of the CAT reporter gene” value was “no discernible effects”. Also, in series [4], the “induction of IL-12 production from mouse spleen cells in vitro” value is given as “greatly reduced”, the “levels of IL-12 induction by GL-67:pCFA-CAT” value was “near background levels” and the “levels of IL-12 induction by pCFA-CAT” value is listed as “near background levels”.
With `CCN(CC)CCCC(C)Nc1c2ccc(Cl)cc2nc2ccc(OC)cc12` (stereo not shown) [quinacrine], in series [1], the “cytokine levels in BALF at higher concentrations of the compound” value is on record as “did not further decrease” and the “inhibition of cytokine production in the lung” value is listed as 50%. In series [3], the “effects on cell viability” value is reported as “no discernible effects” and the “effects on expression of the CAT reporter gene” value is reported as “no discernible effects”. In series [4], the “induction of IL-12 production from mouse spleen cells in vitro” value was “greatly reduced”, the “levels of IL-12 induction by GL-67:pCFA-CAT” value is “near background levels” and the “levels of IL-12 induction by pCFA-CAT” value is on record as “near background levels”.
